Measured values from patent US8835429B2, “Pyrimidine compounds, their use as mTOR kinase and Pl3 kinase inhibitors, and their syntheses” (Wyeth LLC, priority 2009, dated 2014).

Experiments:
PI3K-alpha = PI3K-alpha (Homo sapiens, UniProt P42336); assay: PI3K-alpha fluorescence polarization assay; assay type: biochemical; details: 20 μM PIP2, 25 μM ATP; read-out: PI3Kα IC50
Description: The reaction buffer was 20 mM HEPES, pH 7.5, 2 mM MgCl2, 0.05% CHAPS; and 0.01% βME (added fresh). The stop/detection buffer was 100 mM HEPES, pH 7.5, 4 mM EDTA, 0.05% CHAPS; ATP 20 mM in water; PIP2 (diC8, Echelon, Salt Lake City Utah cat #P-4508) 1 mM in water (MW=856.5). The GST-GRP was 1.75 mg/mL or 1.4 mg/mL in 10% glycerol. The red detector (TAMRA) was 2.5 μM. Nunc 384-well black polypropylene fluorescent plates were used for PI3K assays.
The assay is run by placing 5 μL of diluted enzyme per well, then 5 μL of diluted compound (or 9.5 μL enzyme then 0.5 μL compound in DMSO) is added and mixed. Then, 10 μL substrate is added to start the reaction. The samples are incubated 30-60 minutes, then the reaction is stopped by adding 20 μL stop/detector mix. PI3K is diluted with reaction buffer (e.g., 5 μL or 7.5 μL PI3K into 620 μL reaction buffer), and 5 μL of diluted enzyme is used per well. A 5 μL portion of reaction buffer or of drug diluted in buffer (e.g., 4 μL/100 so final DMSO is 1% in reaction) is added to each. Pipetting up and down mixes the samples. Alternatively, the enzyme can be diluted to 1215 μL. In this case 9.8 μL is added per well and 0.2 μL compound is added in DMSO.
To prepare 1 mL of substrate solution, 955 μL reaction buffer, 40 μL PIP2, and 2.5 μL ATP are mixed. 10 μL of substrate is added to each well to start the reaction. […] The stop/detector mix is prepared by mixing 4 μL red detector and 1.6 μL or 2.0 μL GST-GRP with 1 mL stop buffer, which results in 10 nM probe and 70 nM GST-GRP. 20 μL of the stop/detector mix is added to each well to stop the reaction. The plates are read after 30-90 minutes keeping the red probe solutions dark. For the zero time point, stop/detector mix is added to the enzyme just before adding substrate. For an extra control, stop/detector mix is added to buffer (no enzyme) and substrate or to just buffer (no substrate). […] The recommended reaction has 0.06 μL per 20 μL (0.015 μg/20 μL) or 0.01125 μg/15 μL or 0.75 μg/mL.
Plates are read on machines with filters for TAMRA. The units are mP with no enzyme controls reading app 190-220 mP units. Fully active enzyme reduces fluorescence polarization down to 70-100 mP after 30 minutes. An active compound raises the mP values halfway to control or to 120-150 mP units.

LNCap = assay: In vitro cell growth assay (MTS), LNCap; assay type: cell-based; details: LNCaP, 72 h, human prostate line, three days after drug treatment
Description: (§1) The cell lines used were human prostate lines LNCap and PC3MM2, human breast lines MDA468 and MCF7, human renal line HTB44 (A498), human colon line HCT116, and human ovarian line OVCAR3. Cells were plated in 96-well culture plates. One day following plating, the inhibitors were added to cells. Three days after drug treatment, viable cell densities were determined by metabolic conversion (by viable cells) of the dye MTS, a well-established cell proliferation assay. The assays were performed using an assay kit purchased from Promega Corp. (Madison, Wis.) following the protocol supplied with the kit. The MTS assay results were read in a 96-well plate reader by measuring absorbance at 490 nm. The effect of each treatment was calculated as percent of control growth relative to the vehicle-treated cells grown in the same culture plate.

MDA468 = assay: In vitro cell growth assay (MTS), MDA468; assay type: cell-based; details: 72 h, human breast line MDA468, three days after drug treatment, read-out: MDA IC50
Description: as §1

mTOR = mTOR (Homo sapiens, UniProt P42345); assay: mTOR enzyme assay (DELFIA, purified FLAG-TOR, His6-S6K substrate); assay type: biochemical; parameters: FLAG; details: 100 μM ATP, 2 hours
mTOR, sequence (P42345 1360-2549 limits assumed): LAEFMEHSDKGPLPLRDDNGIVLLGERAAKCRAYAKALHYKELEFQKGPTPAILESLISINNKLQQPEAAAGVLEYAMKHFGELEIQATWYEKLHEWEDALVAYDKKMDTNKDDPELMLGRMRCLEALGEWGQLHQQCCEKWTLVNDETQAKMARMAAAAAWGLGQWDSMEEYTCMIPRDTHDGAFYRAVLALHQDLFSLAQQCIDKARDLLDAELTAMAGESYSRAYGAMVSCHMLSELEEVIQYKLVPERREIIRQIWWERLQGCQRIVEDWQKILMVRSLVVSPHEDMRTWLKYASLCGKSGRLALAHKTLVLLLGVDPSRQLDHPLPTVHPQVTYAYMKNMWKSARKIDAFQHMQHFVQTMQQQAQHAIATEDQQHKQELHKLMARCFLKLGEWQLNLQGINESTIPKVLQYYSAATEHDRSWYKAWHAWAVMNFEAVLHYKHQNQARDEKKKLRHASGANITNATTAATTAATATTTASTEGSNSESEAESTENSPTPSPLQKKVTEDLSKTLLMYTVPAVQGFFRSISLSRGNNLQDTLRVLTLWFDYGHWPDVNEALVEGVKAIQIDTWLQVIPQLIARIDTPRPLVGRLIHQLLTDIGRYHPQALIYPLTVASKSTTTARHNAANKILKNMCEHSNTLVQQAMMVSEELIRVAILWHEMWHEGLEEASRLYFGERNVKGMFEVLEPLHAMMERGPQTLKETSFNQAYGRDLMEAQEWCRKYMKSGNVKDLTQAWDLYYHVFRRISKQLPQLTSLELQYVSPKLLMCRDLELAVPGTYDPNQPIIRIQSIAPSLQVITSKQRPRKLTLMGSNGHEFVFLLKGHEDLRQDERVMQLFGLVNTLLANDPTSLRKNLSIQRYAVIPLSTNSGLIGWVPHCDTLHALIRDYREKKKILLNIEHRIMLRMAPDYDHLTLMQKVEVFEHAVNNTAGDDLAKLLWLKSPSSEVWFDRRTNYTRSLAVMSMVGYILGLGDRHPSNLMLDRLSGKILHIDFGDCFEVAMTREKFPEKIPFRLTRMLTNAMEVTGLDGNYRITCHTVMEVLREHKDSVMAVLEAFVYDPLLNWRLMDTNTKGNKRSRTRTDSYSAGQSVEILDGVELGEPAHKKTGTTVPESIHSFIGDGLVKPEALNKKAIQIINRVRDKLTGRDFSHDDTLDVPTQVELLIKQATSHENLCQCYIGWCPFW

PI3K-alpha, sequence (P42336 whole entry, species assumed): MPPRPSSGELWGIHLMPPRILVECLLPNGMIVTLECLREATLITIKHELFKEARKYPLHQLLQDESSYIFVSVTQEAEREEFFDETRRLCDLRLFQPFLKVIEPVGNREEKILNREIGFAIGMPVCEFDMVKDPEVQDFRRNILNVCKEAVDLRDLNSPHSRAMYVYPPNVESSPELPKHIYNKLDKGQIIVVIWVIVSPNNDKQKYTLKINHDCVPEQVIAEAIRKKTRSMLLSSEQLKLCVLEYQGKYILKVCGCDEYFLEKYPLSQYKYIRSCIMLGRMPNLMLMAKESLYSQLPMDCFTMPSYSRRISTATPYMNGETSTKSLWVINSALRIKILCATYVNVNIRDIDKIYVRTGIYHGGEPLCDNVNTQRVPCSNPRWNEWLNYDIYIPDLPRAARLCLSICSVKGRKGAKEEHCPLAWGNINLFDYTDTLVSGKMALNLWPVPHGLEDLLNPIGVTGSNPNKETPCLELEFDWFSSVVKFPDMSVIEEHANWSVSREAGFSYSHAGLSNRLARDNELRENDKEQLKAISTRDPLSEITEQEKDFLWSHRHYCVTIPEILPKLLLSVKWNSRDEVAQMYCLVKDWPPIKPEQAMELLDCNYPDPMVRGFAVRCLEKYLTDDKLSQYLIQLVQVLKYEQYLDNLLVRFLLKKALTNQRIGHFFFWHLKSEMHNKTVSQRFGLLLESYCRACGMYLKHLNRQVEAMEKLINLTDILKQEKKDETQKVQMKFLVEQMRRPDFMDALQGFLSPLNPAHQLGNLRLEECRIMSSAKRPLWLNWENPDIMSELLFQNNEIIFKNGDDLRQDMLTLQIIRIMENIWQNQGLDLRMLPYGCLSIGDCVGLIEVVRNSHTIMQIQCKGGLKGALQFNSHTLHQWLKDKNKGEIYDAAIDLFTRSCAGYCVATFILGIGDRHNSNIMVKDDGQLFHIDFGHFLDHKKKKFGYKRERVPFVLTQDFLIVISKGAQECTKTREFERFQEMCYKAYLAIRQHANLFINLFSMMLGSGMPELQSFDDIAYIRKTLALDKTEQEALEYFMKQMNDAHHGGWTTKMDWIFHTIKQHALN
PI3K-alpha, sequence (P27986 whole entry partner, species assumed): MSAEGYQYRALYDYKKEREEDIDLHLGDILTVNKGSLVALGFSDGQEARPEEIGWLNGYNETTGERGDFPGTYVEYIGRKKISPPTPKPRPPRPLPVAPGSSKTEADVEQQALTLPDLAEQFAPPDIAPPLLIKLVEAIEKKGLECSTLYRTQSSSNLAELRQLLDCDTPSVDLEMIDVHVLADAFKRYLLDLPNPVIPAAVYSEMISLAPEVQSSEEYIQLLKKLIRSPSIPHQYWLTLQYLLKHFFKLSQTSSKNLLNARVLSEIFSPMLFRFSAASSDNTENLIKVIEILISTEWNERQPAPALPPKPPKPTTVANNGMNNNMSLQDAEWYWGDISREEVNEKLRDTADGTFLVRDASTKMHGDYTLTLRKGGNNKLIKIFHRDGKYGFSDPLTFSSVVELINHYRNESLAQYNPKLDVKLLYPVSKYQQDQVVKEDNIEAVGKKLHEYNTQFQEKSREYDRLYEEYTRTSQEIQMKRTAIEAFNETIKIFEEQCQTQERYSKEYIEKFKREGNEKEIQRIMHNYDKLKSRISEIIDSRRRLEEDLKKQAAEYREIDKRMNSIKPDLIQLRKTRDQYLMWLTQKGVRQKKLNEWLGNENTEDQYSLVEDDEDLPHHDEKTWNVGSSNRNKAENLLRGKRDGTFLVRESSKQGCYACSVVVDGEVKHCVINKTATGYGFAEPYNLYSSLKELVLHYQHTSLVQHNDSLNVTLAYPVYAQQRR

SMILES	IC50 (PI3K-alpha) [nM]	IC50 (LNCap) [nM]	IC50 (MDA468) [nM]	IC50 (mTOR) [nM]
CC(C)Nc1cc(N2CC3CCC(C2)O3)nc(-c2ccc(NC(=O)Nc3ccc(N4CCN(C)CC4)cc3)cc2)n1 [1-(4-{4-[(1-methylethyl)amino]-6-(8-oxa-3-azabicyclo[3.2.1]oct-3-yl)pyrimidin-2-yl}phenyl)-3-[4-(4-methylpiperazin-1-yl)phenyl]urea]	212	13.4	50	4.17
CC(C)Nc1cc(N2CC3CCC(C2)O3)nc(-c2ccc(NC(=O)Nc3ccncc3)cc2)n1 [1-(4-{4-[(1-methylethyl)amino]-6-(8-oxa-3-azabicyclo[3.2.1]oct-3-yl)pyrimidin-2-yl}phenyl)-3-pyridin-4-ylurea]	140	51	310	0.785
CS(=O)(=O)Cc1cc(N2CC3CCC(C2)O3)nc(-c2ccc(NC(=O)Nc3ccc(N4CCNCC4)cc3)cc2)n1 [1-(4-{4-[(methylsulfonyl)methyl]-6-(8-oxa-3-azabicyclo[3.2.1]oct-3-yl)pyrimidin-2-yl}phenyl)-3-(4-piperazin-1-ylphenyl)urea]	242	90	110	3
CS(=O)(=O)Cc1cc(N2CC3CCC(C2)O3)nc(-c2ccc(NC(=O)Nc3ccccc3)cc2)n1 [1-(4-{4-[(methylsulfonyl)methyl]-6-(8-oxa-3-azabicyclo[3.2.1]oct-3-yl)pyrimidin-2-yl}phenyl)-3-phenylurea]	172	0.9	9	3
CS(=O)(=O)Cc1cc(N2CC3CCC(C2)O3)nc(-c2ccc(NC(=O)Nc3cccnc3)cc2)n1 [1-(4-{4-[(methylsulfonyl)methyl]-6-(8-oxa-3-azabicyclo[3.2.1]oct-3-yl)pyrimidin-2-yl}phenyl)-3-pyridin-3-ylurea]	341	195	170	1.02
CS(=O)(=O)Cc1cc(N2CC3CCC(C2)O3)nc(-c2ccc(NC(=O)Nc3ccncc3)cc2)n1 [1-(4-{4-[(methylsulfonyl)methyl]-6-(8-oxa-3-azabicyclo[3.2.1]oct-3-yl)pyrimidin-2-yl}phenyl)-3-pyridin-4-ylurea]	236	150	75	0.825
CN1CCN(c2ccc(NC(=O)Nc3ccc(-c4cc(N5CC6CCC(C5)O6)nc(N5CC6CCC(C5)O6)n4)cc3)cc2)CC1 [1-[4-(2,6-di-8-oxa-3-azabicyclo[3.2.1]oct-3-ylpyrimidin-4-yl)phenyl]-3-[4-(4-methylpiperazin-1-yl)phenyl]urea]	588	40	160	9.55
CNC(=O)Nc1ccc(-c2cc(N3CC4CCC(C3)O4)nc(N3CC4CCC(C3)O4)n2)cc1 [1-[4-(2,6-di-8-oxa-3-azabicyclo[3.2.1]oct-3-ylpyrimidin-4-yl)phenyl]-3-methylurea]	2490	1600	4200	20.5
O=C(Nc1ccncc1)Nc1ccc(-c2cc(N3CC4CCC(C3)O4)nc(N3CC4CCC(C3)O4)n2)cc1 [1-[4-(2,6-di-8-oxa-3-azabicyclo[3.2.1]oct-3-ylpyrimidin-4-yl)phenyl]-3-pyridin-4-ylurea]	137	130	380	2.45
CN1CCN(c2ccc(NC(=O)Nc3ccc(-c4nc(N5C6CCC5COC6)cc(N5C6CCC5COC6)n4)cc3)cc2)CC1 [1-[4-(4,6-di-3-oxa-8-azabicyclo[3.2.1]oct-8-ylpyrimidin-2-yl)phenyl]-3-[4-(4-methylpiperazin-1-yl)phenyl]urea]	1140	≤ 0.8	0.8	1.7
O=C(Nc1ccncc1)Nc1ccc(-c2nc(N3C4CCC3COC4)cc(N3C4CCC3COC4)n2)cc1 [1-[4-(4,6-di-3-oxa-8-azabicyclo[3.2.1]oct-8-ylpyrimidin-2-yl)phenyl]-3-pyridin-4-ylurea]	954	3	19	0.655
CN1CCN(C(=O)c2ccc(NC(=O)Nc3ccc(-c4nc(N5C6CCC5COC6)cc(N5C6CCC5COC6)n4)cc3)cc2)CC1 [1-[4-(4,6-di-3-oxa-8-azabicyclo[3.2.1]oct-8-ylpyrimidin-2-yl)phenyl]-3-{4-[(4-methylpiperazin-1-yl)carbonyl]phenyl}urea]	129	≤ 0.8	0.8	0.94
CN1CCN(Cc2ccc(NC(=O)Nc3ccc(-c4nc(N5C6CCC5COC6)cc(N5C6CCC5COC6)n4)cc3)cc2)CC1 [1-[4-(4,6-di-3-oxa-8-azabicyclo[3.2.1]oct-8-ylpyrimidin-2-yl)phenyl]-3-{4-[(4-methylpiperazin-1-yl)methyl]phenyl}urea]	1950	≤ 0.8	4	2.25
CCN(C(=O)Nc1ccc(N2CCN(C)CC2)cc1)c1ccc(-c2nc(N3CC4CCC(C3)O4)cc(N3CC4CCC(C3)O4)n2)cc1 [1-[4-(4,6-di-8-oxa-3-azabicyclo[3.2.1]oct-3-ylpyrimidin-2-yl)phenyl]-1-ethyl-3-[4-(4-methylpiperazin-1-yl)phenyl]urea]	2440	2800	7000	195
CCN(C(=O)Nc1ccncc1)c1ccc(-c2nc(N3CC4CCC(C3)O4)cc(N3CC4CCC(C3)O4)n2)cc1 [1-[4-(4,6-di-8-oxa-3-azabicyclo[3.2.1]oct-3-ylpyrimidin-2-yl)phenyl]-1-ethyl-3-pyridin-4-ylurea]	2260	5800	20000	200
CN1CCN(c2ccc(NC(=O)Nc3ccc(-c4nc(N5CC6CCC(C5)O6)cc(N5CC6CCC(C5)O6)n4)cc3)cc2)CC1 [1-[4-(4,6-di-8-oxa-3-azabicyclo[3.2.1]oct-3-ylpyrimidin-2-yl)phenyl]-3-[4-(4-methylpiperazin-1-yl)phenyl]urea]	328	2.4	19	2.55
CNC(=O)Nc1ccc(-c2nc(N3CC4CCC(C3)O4)cc(N3CC4CCC(C3)O4)n2)cc1 [1-[4-(4,6-di-8-oxa-3-azabicyclo[3.2.1]oct-3-ylpyrimidin-2-yl)phenyl]-3-methylurea]	1080	250	1000	7.05
O=C(Nc1ccncc1)Nc1ccc(-c2nc(N3CC4CCC(C3)O4)cc(N3CC4CCC(C3)O4)n2)cc1 [1-[4-(4,6-di-8-oxa-3-azabicyclo[3.2.1]oct-3-ylpyrimidin-2-yl)phenyl]-3-pyridin-4-ylurea]	125	28	50	0.56
CN1CCN(c2ccc(NC(=O)Nc3ccc(-c4nc(CS(C)(=O)=O)cc(N5CC6CCC(C5)O6)n4)cc3)cc2)CC1 [1-[4-(4-methylpiperazin-1-yl)phenyl]-3-(4-{4-[(methylsulfonyl)methyl]-6-(8-oxa-3-azabicyclo[3.2.1]oct-3-yl)pyrimidin-2-yl}phenyl)urea]	343	15	30	2.95
CN1CCN(c2ccc(NC(=O)Nc3ccc(-c4nc(N5CC6CCC(C5)O6)cc(C(F)(F)F)n4)cc3)cc2)CC1 [1-[4-(4-methylpiperazin-1-yl)phenyl]-3-{4-[4-(8-oxa-3-azabicyclo[3.2.1]oct-3-yl)-6-(trifluoromethyl)pyrimidin-2-yl]phenyl}urea]	440	50	190	11
